Test results published in ChEMBL document CHEMBL4480431, “Design, synthesis and biological evaluation of imidazo[1,5-a]pyrazin-8(7H)-one derivatives as BRD9 inhibitors” (Bioorg Med Chem, 2019).
pIC50: −log10 of the molar value.

Assays:
[1] = biological target: T1, Bromodomain-containing protein 9 (Homo sapiens) (UniProt Q9H8M2); test: Inhibition of BRD9 (unknown origin) at 1 uM using H4 peptide as substrate preincubated for 15 mins followed by substrate addition and measured after 60 mins by Alphascreen assay relative to control
T1 sequence (whole entry): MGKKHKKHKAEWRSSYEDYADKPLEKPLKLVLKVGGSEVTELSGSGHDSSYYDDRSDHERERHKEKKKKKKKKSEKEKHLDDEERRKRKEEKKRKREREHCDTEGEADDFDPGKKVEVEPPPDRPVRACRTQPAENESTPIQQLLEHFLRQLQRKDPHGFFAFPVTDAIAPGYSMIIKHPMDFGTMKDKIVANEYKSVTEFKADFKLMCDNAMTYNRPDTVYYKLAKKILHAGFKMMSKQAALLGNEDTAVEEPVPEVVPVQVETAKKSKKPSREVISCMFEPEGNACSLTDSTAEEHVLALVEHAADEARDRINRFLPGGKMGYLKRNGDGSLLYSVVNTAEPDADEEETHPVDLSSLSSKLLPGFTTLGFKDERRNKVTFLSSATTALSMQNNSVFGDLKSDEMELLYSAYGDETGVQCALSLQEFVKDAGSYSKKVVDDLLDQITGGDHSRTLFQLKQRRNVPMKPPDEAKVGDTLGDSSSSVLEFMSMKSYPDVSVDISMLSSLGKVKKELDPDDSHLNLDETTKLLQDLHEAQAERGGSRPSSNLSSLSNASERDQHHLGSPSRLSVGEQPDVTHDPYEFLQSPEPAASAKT

[2] = biological target: T2, Bromodomain-containing protein 9 (Homo sapiens, UniProt Q9H8M2); test: Inhibition of BRD9 (unknown origin) using H4 peptide as substrate preincubated for 15 mins followed by substrate addition and measured after 60 mins by Alphascreen assay
T2 sequence (Q9H8M2 whole entry): T1 sequence (whole entry)

[3] = biological target: Bromodomain-containing protein 4 (Homo sapiens) (UniProt O60885); test: Inhibition of recombinant human BRD4 (44 to 168) residues expressed in Escherichia coli at 1 uM using H4 peptide as substrate preincubated for 15 mins followed by substrate addition and measured after 60 mins by Alphascreen assay relative to control
[4] = test system: A549; test: Antiproliferative activity against human A549 cells; format: functional, cell-based
[5] = test system: EOL1; test: Antiproliferative activity against human EOL-1 cells; format: functional, cell-based

inhibition [1] [%]	pIC50 [2]	inhibition [3] [%]	pIC50 [4]	Compound	pIC50 [5]
5				CCn1cc(-c2ccc(C(=O)N3CCOCC3)c(Cl)c2)n2cncc2c1=O	
21				CCCCn1cc(-c2ccc(C(=O)NC3CCS(=O)(=O)CC3)c(Cl)c2)n2cncc2c1=O	
6	5.13			Cn1cc(-c2cccc(C(F)(F)F)c2)n2cncc2c1=O	
94	6.58	-5	5.15	C/C=C/Cn1cc(-c2ccc(C(=O)N3CCC(C(N)=O)CC3)c(Cl)c2)n2cncc2c1=O	5.47
		100		CCS(=O)(=O)Nc1ccc(Oc2ccc(F)cc2)c(-c2cn(C)c(=O)c3cncn23)c1	
16	5.52			COc1cccc(-c2cn(C)c(=O)c3cncn23)c1	
7	5.14			Cn1cc(-c2ccccc2)n2cncc2c1=O	
27	5.82			Cn1cc(-c2ccc(C(=O)N3CCOCC3)c(Cl)c2)n2cncc2c1=O	
91	6.33	-2	< 5.00	C/C=C/Cn1cc(-c2ccc(C(=O)N3CCOCC3)c(Cl)c2)n2cncc2c1=O	5.09
99	7.46	-6	5.21	C/C=C/Cn1cc(-c2ccc(C(=O)N3CCNCC3)c(Cl)c2)n2cncc2c1=O	5.75
68	6.14			CCCCn1cc(-c2ccc(C(=O)N3CCNCC3)c(Cl)c2)n2cncc2c1=O	
83	6.10			CCn1cc(-c2ccc(C(=O)N3CCNCC3)c(Cl)c2)n2cncc2c1=O	
94	6.99	-5	5.18	C/C=C/Cn1cc(-c2ccc(C(=O)N3CCN(S(C)(=O)=O)CC3)c(Cl)c2)n2cncc2c1=O	5.64
42	6.12			C/C=C/Cn1cc(-c2ccc(C(=O)N3CCOCC3)cc2Cl)n2cncc2c1=O	
48	6.08			CCCCn1cc(-c2ccc(C(=O)N3CCOCC3)c(Cl)c2)n2cncc2c1=O	
71	6.19			C/C=C/Cn1cc(-c2ccc(C(=O)N3CCN(S(C)(=O)=O)CC3)c(F)c2)n2cncc2c1=O	
87	6.36	-4	5.08	C/C=C/Cn1cc(-c2ccc(C(=O)N3CCCC3)c(Cl)c2)n2cncc2c1=O	5.24
100	6.32	-5	< 5.00	C/C=C/Cn1cc(-c2ccc(C(=O)NC3CCS(=O)(=O)CC3)c(Cl)c2)n2cncc2c1=O	5.27
23				CCCn1cc(-c2ccc(C(=O)NC3CCS(=O)(=O)CC3)c(Cl)c2)n2cncc2c1=O	
86	6.03			CCCn1cc(-c2ccc(C(=O)N3CCNCC3)c(Cl)c2)n2cncc2c1=O	
18	5.63			Cn1cc(-c2ccc(C(=O)N3CCOCC3)cc2)n2cncc2c1=O	
80	6.25	-3	< 5.00	C/C=C/Cn1cc(-c2ccc(C(=O)N3CCN(C)CC3)c(Cl)c2)n2cncc2c1=O	5.15
75	5.99			CCn1cc(-c2ccc(C(=O)NC3CCS(=O)(=O)CC3)c(Cl)c2)n2cncc2c1=O	
52	6.08			C/C=C/Cn1cc(-c2ccc(C(=O)N3CCN(S(C)(=O)=O)CC3)cc2Cl)n2cncc2c1=O	
38	6.01			C/C=C/Cn1cc(-c2ccc(C(=O)N3CCOCC3)c(F)c2)n2cncc2c1=O	
87 to 90				CCOC(=O)Nc1cc(-c2ccc(C)c(NS(C)(=O)=O)c2)nn2c(C)nnc12	
